pIC50, pKd: −log10 of the molar value.

One assay addresses T1, Fatty acid hydroperoxide lyase, chloroplastic (Solanum lycopersicum, UniProt K4CF70).
T1 sequence (K4CF70 whole entry): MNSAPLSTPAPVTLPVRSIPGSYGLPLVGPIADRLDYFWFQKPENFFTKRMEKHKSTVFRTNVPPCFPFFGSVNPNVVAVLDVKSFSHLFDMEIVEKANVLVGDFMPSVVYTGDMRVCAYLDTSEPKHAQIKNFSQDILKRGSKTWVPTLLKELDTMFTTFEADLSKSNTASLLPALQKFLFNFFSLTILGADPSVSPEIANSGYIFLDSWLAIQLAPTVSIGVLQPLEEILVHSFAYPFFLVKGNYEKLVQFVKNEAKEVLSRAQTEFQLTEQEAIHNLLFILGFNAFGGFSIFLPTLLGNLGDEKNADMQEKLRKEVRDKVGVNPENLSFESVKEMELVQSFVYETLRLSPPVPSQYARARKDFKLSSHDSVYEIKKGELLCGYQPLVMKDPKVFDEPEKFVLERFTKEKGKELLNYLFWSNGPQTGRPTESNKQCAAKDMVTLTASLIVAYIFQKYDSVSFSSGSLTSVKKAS
Put plainly: Binding affinity to recombinant Solanum lycopersicum (tomato) fatty acid 13-hydroperoxide lyase by optical difference spectroscopy.
For `Clc1ccc(C(Cn2ccnc2)OCc2ccccc2)c(Cl)c1` (centres undefined), the pKd (usually the negative decadic logarithm of the Kd, by convention in mol/L) was 4.87.

For the next assay, the target named is T1, Fatty acid hydroperoxide lyase, chloroplastic. Nature of the assay: Inhibition of recombinant Solanum lycopersicum (tomato) fatty acid 13-hydroperoxide lyase using (13S)-HPOT substrate by spectrophotometry.
Turning to `Clc1ccc(C(Cn2ccnc2)OCc2ccccc2)c(Cl)c1` (centres undefined), the pIC50 (commonly the IC50 on a negative log10 scale, so that one unit is a factor of ten) is 4.41. Still for that read-out and setting: then `Clc1ccc(C(Cn2ccnc2)OCc2ccccc2Cl)c(Cl)c1` (centres undefined), with below 4.00; and `Clc1cccc(COC(Cn2ccnc2)c2ccc(Cl)cc2Cl)c1` (centres undefined), with below 4.00; and `Clc1ccc(C(Cn2ccnc2)OCc2ccc(Cl)nc2)c(Cl)c1` (centres undefined), with below 4.00. Still for that read-out and setting: then `Clc1ccc(C(Cn2ccnc2)OCc2cccc(Cl)c2Cl)c(Cl)c1` (centres undefined), with 4.34. Still for that read-out and setting: the figure for `Clc1ccc(C(Cn2ccnc2)OCc2ccc(Cl)c(Cl)c2)c(Cl)c1` (centres undefined) is below 4.00; for `Fc1ccc(COC(Cn2ccnc2)c2ccc(Cl)cc2Cl)c(F)c1` (centres undefined) it is below 4.00. Consider `Fc1ccc(F)c(COC(Cn2ccnc2)c2ccc(Cl)cc2Cl)c1` (centres undefined), for which the negative-log IC50 (pIC50) was below 4.00. Consider `Fc1ccc(COC(Cn2ccnc2)c2ccc(Cl)cc2Cl)cc1F` (centres undefined), for which the pIC50 was below 4.00.

With `Fc1cc(F)cc(COC(Cn2ccnc2)c2ccc(Cl)cc2Cl)c1` (centres undefined), the pIC50 was below 4.00. With `Clc1ccc(C(Cn2ccnc2)OCc2c(Cl)cccc2Cl)c(Cl)c1` (centres undefined) [ISOCONAZOLE], the pIC50 is below 4.00. On to `Clc1ccc(COC(Cn2ccnc2)c2ccc(Cl)cc2Cl)c(Cl)c1` (centres undefined) [MICONAZOLE], for which the pIC50 was 4.19. As to `CC(Cc1ccc(O)c(O)c1)C(C)Cc1ccc(O)c(O)c1` (centres undefined) [NORDIHYDROGUAIARETIC ACID], the negative-log IC50 (pIC50) is 4.30.

The values above are taken from ChEMBL document CHEMBL3044638, “Biological evaluation of imidazole derivatives as inhibitors of hydroperoxide lyase, a key enzyme in plant volatile biosynthesis” (J Pestic Sci, 2011).
